Measured values taken from paper PMC8709289, “Tetrahydroimidazo[4,5-c]pyridine-Based Inhibitors of Porphyromonas gingivalis Glutaminyl Cyclase” (Pharmaceuticals, 2021).
Read-outs that look alike come from different tables or passages of the source.

Key:
[1] = molecular target: PgQC (glutaminyl cyclase from P. gingivalis) (Porphyromonas gingivalis, UniProt Q7MT37); experiment: Inhibition of P. gingivalis glutaminyl cyclase, fluorogenic substrate H-Gln-AMC; format: biochemical
Method: (§2) The enzymatic activity of recombinant QCs were evaluated using the fluorogenic substrate H-Gln-AMC as described previously [25]. For inhibitor testing, compounds were added with 1% (v/v) DMSO in the reaction mixture. Inhibitory constants were determined using concentrations of H-Gln-AMC varying from 1/4 KM to 2 KM and a final concentration of QC in a range between 20 and 50 nM. Progress curves were fitted to the general equation for competitive inhibition using GraFit software (Version 7, Erithacus software Ltd., Horley, UK).

[2] = Cytotoxicity, cell viability in Hep-G2; format: cell-based; conditions: human, Hep-G2 cells; 30 µM compound
From the text: (§1) Table 3 Inhibition of related glutaminyl cyclases from bacteria and human and cytotoxicity of selected inhibitors. | column: 8k; 8t; 8w

[3] = molecular target: TfQC; experiment: Inhibition of Tannerella forsythia glutaminyl cyclase, fluorogenic substrate H-Gln-AMC; conditions: read-out: Ki TfQC; recombinant QC, competitive inhibition fit
Method: as §2

[4] = Cytotoxicity, cell viability in SHSY-5Y; format: cell-based; conditions: human, SHSY-5Y cells; 30 µM compound
From the text: as §1

[5] = molecular target: hQC (human glutaminyl cyclase) (Homo sapiens, UniProt Q16769); experiment: Inhibition of human glutaminyl cyclase, fluorogenic substrate H-Gln-AMC; format: biochemical
Chain of hQC (human glutaminyl cyclase) (Q16769 29-361): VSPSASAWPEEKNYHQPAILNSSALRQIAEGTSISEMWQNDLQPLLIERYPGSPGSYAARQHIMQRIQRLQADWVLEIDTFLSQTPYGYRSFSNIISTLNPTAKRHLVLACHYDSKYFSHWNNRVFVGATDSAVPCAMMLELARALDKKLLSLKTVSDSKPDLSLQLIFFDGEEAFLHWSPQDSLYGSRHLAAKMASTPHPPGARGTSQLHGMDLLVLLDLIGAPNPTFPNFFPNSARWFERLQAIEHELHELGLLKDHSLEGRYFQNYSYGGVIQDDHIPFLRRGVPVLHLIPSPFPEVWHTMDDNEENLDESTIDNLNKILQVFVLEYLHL
Method: (§3) The enzymatic activity of recombinant QCs were evaluated using the fluorogenic substrate H-Gln-AMC as described previously [25]. For inhibitor testing, compounds were added with 1% (v/v) DMSO in the reaction mixture.

[6] = molecular target: PiQC (Prevotella intermedia, UniProt A0A3R7XL21); experiment: Inhibition of Prevotella intermedia glutaminyl cyclase, fluorogenic substrate H-Gln-AMC; format: biochemical; conditions: recombinant QC, competitive inhibition fit
Chain of PiQC (A0A3R7XL21 entry or part of it): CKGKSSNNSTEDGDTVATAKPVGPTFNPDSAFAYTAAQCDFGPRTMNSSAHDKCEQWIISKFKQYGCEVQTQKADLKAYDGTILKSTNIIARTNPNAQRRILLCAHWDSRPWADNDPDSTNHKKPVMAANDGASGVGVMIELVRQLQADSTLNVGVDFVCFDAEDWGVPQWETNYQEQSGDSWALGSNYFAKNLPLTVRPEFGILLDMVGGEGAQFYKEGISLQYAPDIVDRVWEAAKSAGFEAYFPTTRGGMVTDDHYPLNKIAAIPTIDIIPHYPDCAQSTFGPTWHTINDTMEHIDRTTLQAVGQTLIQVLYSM
Method: as §3

[7] = recombinant QC, competitive inhibition fit, read-out: Ki PgQC
[8] = recombinant QC, competitive inhibition fit, read-out: Ki hQC

Chain of PgQC (glutaminyl cyclase from P. gingivalis) (Q7MT37 entry or part of it): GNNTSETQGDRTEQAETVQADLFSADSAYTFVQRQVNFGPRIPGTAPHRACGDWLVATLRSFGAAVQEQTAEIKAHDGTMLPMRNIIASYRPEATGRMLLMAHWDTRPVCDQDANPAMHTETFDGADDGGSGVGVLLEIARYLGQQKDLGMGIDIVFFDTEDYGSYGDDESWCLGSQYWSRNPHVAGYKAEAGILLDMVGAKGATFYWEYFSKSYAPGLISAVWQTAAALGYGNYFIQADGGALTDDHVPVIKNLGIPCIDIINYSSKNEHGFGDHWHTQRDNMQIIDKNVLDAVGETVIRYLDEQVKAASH

Row | Compound | Ki [1, 7] [µM] | also measured
1 | O=C(c1ccc(Cl)c(Cl)c1)N1CCc2[nH]cnc2C1 [8j, (3,4-Dichlorophenyl)-(3,4,6,7-tetrahydroimidazo[4,5-c]pyridin-5-yl)methanone] | 0.257 ± 0.016 | 
2 | c1ccc(CNCCc2c[nH]cn2)cc1 [6a, N-Benzylhistamine] |  | Inhibition of PgQC at 10 µM [1]: no inhibition @ 10 µM
3 | COc1cc(C(=O)N2CCc3[nH]cnc3C2)ccc1F [8s, (4-Fluoro-3-methoxyphenyl)-(3,4,6,7-tetrahydroimidazo[4,5-c]pyridin-5-yl)methanone] | 1.24 ± 0.113 | 
4 | c1ccc2[nH]cnc2c1 [compound 1, benzimidazole, reference compound] | 32 ± 1.4 | 
5 | O=C(/C=C/c1ccccc1)N1CCc2[nH]cnc2C1 [8d, (E)-3-Phenyl-1-(3,4,6,7-tetrahydroimidazo[4,5-c]pyridin-5-yl)prop-2-en-1-one] | 1.57 ± 0.025 | 
6 | c1ccc(CN2CCc3nc[nH]c3C2c2ccccc2)cc1 (stereo not shown) [7e, 5-Benzyl-4-phenyl-3,4,6,7-tetrahydroimidazo[4,5-c]pyridine] |  | Inhibition of PgQC at 10 µM [1]: no inhibition @ 10 µM
7 | COc1ccc(C(=O)N2CCc3[nH]cnc3C2)cc1 [8l, (4-Methoxyphenyl)-(3,4,6,7-tetrahydroimidazo[4,5-c]pyridin-5-yl)methanone] | 0.833 ± 0.049 | 
8 | O=C(c1cc(Cl)cc(Cl)c1)N1CCc2nc[nH]c2C1 [8k, (3,5-Dichlorophenyl)-(3,4,6,7-tetrahydroimidazo[4,5-c]pyridin-5-yl)methanone] | 0.1 ± 0.006 | viability at 30 µM [2]: 92%; Ki [3]: 0.176 ± 0.003 µM; viability at 30 µM [4]: 119%; Ki [5, 8]: 0.387 ± 0.064 µM; Ki [6]: 0.063 ± 0.007 µM
9 | O=C(c1ccc2c(c1)OCO2)N1CCc2[nH]cnc2C1 [8q, Benzo[d][1,3]dioxol-5-yl(3,4,6,7-tetrahydroimidazo[4,5-c]pyridin-5-yl)methanone] | 0.56 ± 0.004 | 
10 | c1c[nH]cn1 [compound 2, imidazole, reference compound] | 350 ± 23 | 
11 | O=C(CCc1ccccc1)N1CCc2[nH]cnc2C1 [8c, 3-Phenyl-1-(3,4,6,7-tetrahydroimidazo[4,5-c]pyridin-5-yl)propan-1-one] | 1.75 ± 0.06 | 
12 | c1ccc(Cn2ccnc2)cc1 [compound 3, N-benzylimidazole, reference compound] | 10 ± 0.2 | Ki [5]: 17 ± 3 µM
13 | O=C(Cc1ccccc1)N1CCc2[nH]cnc2C1 [8b, 2-Phenyl-1-(3,4,6,7-tetrahydroimidazo[4,5-c]pyridin-5-yl)ethanone] | 1.68 ± 0.08 | 
14 | O=C(c1ccc2c(c1)OCCO2)N1CCc2[nH]cnc2C1 [8p, (2,3-Dihydrobenzo[b][1,4]dioxin-6-yl)(1,4,6,7-tetrahydro-5H-imidazo-[4,5-c]pyridin-5-yl)methanone] | 1.34 ± 0.219 | 
15 | COc1cccc(C(=O)N2CCc3[nH]cnc3C2)c1 [8m, (3-Methoxyphenyl)-(3,4,6,7-tetrahydroimidazo[4,5-c]pyridin-5-yl)methanone] | 0.335 ± 0.006 | 
16 | CC1c2nc[nH]c2CCN1Cc1ccccc1 (stereo not shown) [7d, 5-Benzyl-4-methyl-3,4,6,7-tetrahydroimidazo[4,5-c]pyridine] | 3.08 ± 0.04 | 
17 | c1ccc(CCN2CCc3[nH]cnc3C2)cc1 [7b, 5-(2-Phenylethyl)-3,4,6,7-tetrahydroimidazo[4,5-c]pyridine] | 6.47 ± 0.4 | 

Row | Compound | Ki [1, 7] [µM] | also measured
18 | O=C(c1cccc(-c2ccccc2)c1)N1CCc2[nH]cnc2C1 [8v, [1,1′-Biphenyl]-3-yl-(3,4,6,7-tetrahydroimidazo[4,5-c]pyridin-5-yl)methanone] | 0.547 ± 0.041 | 
19 | O=C(c1ccccc1)N1CCc2[nH]cnc2C1 [8a, Phenyl(3,4,6,7-tetrahydroimidazo[4,5-c]pyridin-5-yl)methanone] | 0.435 ± 0.015 | 
20 | CCCOc1cccc(C(=O)N2CCc3[nH]cnc3C2)c1 [8r, (3-Propoxyphenyl)-(3,4,6,7-tetrahydroimidazo[4,5-c]pyridin-5-yl)methanone] | 0.78 ± 0.024 | 
21 | c1ccc(CN2CCc3[nH]cnc3C2)cc1 [7a, 5-Benzyl-3,4,6,7-tetrahydroimidazo[4,5-c]pyridine] | 0.909 ± 0.005 | 
22 | O=C(c1ccc2ccccc2c1)N1CCc2nc[nH]c2C1 [8w, Naphthalen-2-yl-(3,4,6,7-tetrahydroimidazo[4,5-c]pyridin-5-yl)methanone] |  | viability at 30 µM [2]: 94%; Ki [3]: 0.185 ± 0.01 µM; viability at 30 µM [4]: 127%; Ki [5, 8]: 0.132 ± 0.011 µM; Ki [1]: 0.126 ± 0.009 µM; Ki [6]: 0.117 ± 0.002 µM
23 | O=C(c1ccc(Cl)cc1)N1CCc2[nH]cnc2C1 [8h, (4-Chlorophenyl)-(3,4,6,7-tetrahydroimidazo[4,5-c]pyridin-5-yl)methanone] | 0.682 ± 0.025 | 
24 | O=C(c1cccc(F)c1)N1CCc2[nH]cnc2C1 [8f, (3-Fluorophenyl)-(3,4,6,7-tetrahydroimidazo[4,5-c]pyridin-5-yl)methanone] | 0.322 ± 0.006 | 
25 | COc1ccc(C(=O)N2CCc3[nH]cnc3C2)cc1OC [8n, (3,4-Dimethoxyphenyl)-(3,4,6,7-tetrahydroimidazo[4,5-c]pyridin-5-yl)methanone] | 1.47 ± 0.304 | 
26 | O=C(c1cccc(Cl)c1)N1CCc2[nH]cnc2C1 [8i, (3-Chlorophenyl)-(3,4,6,7-tetrahydroimidazo[4,5-c]pyridin-5-yl)methanone] | 0.174 ± 0.014 | 
27 | O=C(c1ccc(-c2ccccc2)cc1)N1CCc2[nH]cnc2C1 [8u, [1,1′-Biphenyl]-4-yl(3,4,6,7-tetrahydroimidazo[4,5-c]pyridin-5-yl)methanone] | 1.9 ± 0.071 | 
28 | O=C(c1cc(F)c(F)c(F)c1)N1CCc2[nH]cnc2C1 [8g, (3,4,6,7-Tetrahydroimidazo[4,5-c]pyridin-5-yl)(3,4,5-trifluoro-phenyl)methanone] | 0.904 ± 0.007 | 
29 | COc1ccc(NC(=S)NCCCn2ccnc2)cc1OC [PQ50, reference compound] | 6 ± 0.15 | 
30 | c1ccc(CN2CCc3[nH]cnc3C23COC3)cc1 [7c, 5-Benzylspiro[6,7-dihydro-3H-imidazo[4,5-c]pyridine-4,3′-oxetane]] | 1.76 ± 0.145 | 
31 | COc1cc(Cl)cc(C(=O)N2CCc3[nH]cnc3C2)c1 [8t, (3-Chloro-5-methoxyphenyl)(1,4,6,7-tetrahydro-5H-imidazo[4,5-c]pyridin-5-yl)methanone] | 0.087 ± 0.006 | viability at 30 µM [2]: 96%; Ki [3]: 0.221 ± 0.019 µM; viability at 30 µM [4]: 128%; Ki [5, 8]: 0.385 ± 0.096 µM; Ki [6]: 0.096 ± 0.012 µM
32 | O=C(c1ccc(F)cc1)N1CCc2[nH]cnc2C1 [8e, (4-Fluorophenyl)-(3,4,6,7-tetrahydroimidazo[4,5-c]pyridin-5-yl)methanone] | 0.879 ± 0.008 | 
33 | COc1cc(OC)cc(C(=O)N2CCc3[nH]cnc3C2)c1 [8o, (3,5-Dimethoxyphenyl)-(3,4,6,7-tetrahydroimidazo[4,5-c]pyridin-5-yl)methanone] | 0.928 ± 0.021 | 
